Assay results: US6800465B2, “D-hydantoinase from Ochrobactrum anthropi” (priority 2001, dated 2004)

Columns and labels:
hydantoinase [1] = assay: Effect of substrate concentration on rate of conversion by glutaraldehyde treated cells; type: biochemical, Ochrobactrum anthropi; settings: pH 8.8, 42° C.; for % Conversion: 6 hours
Description: Incubations were in 200 mM TAPS pH 8.8, 42° C. for 6 hours, and pH adjustments were made back to normal at least every hour.

hydantoinase [2] = assay: Substrate specificity of purified recombinant hydantoinase; type: biochemical, Ochrobactrum anthropi; settings: purified recombinant enzyme from E. coli BL21, compound as substrate
Description: E. coli BL21 containing the hydantoinase gene was grown as described in example 4.2. The cells were centrifuged and washed with 100 mM carbonate buffer pH 9.0 and resuspended in the same buffer and ruptured by sonication. The enzyme was purified as described in example 2. The purified enzyme was tested for substrate specificity with various hydantoins as substrate.

hydantoinase [3] = assay: Effect of glutaraldehyde and acetone treatment of whole cells on hydantoinase activity; type: biochemical, Ochrobactrum anthropi; settings: treated whole cells; 10 mg/ml D,L-p-hydroxyphenyl hydantoin, pH 8.5, 42° C., 4 hours; Control (buffer only) = 1
Description: Washed cell suspension 0.5 ml aliquots of culture was treated with 0.5 ml glutaraldehyde (G.A.) final concentration 2% in phosphate buffer pH 7.0, or with 0.5 ml G.A. 2% in phosphate buffer and 1 ml acetone, or with 0.5 ml acetone alone at room temperature for 10 minutes. The treated cells were washed with 10 ml 0.9% saline and then with saline +1 mg/ml ammonium sulfate and resuspended in 1 ml 100 mM TAPS buffer pH 8.5. Resuspended cell suspensions were incubated with 10 mg/ml D,L-p-hydroxyphenyl hydantoin in 100 mM TAPS pH 8.5 (final volume 800 μl) at 42° C. for 4 hours. Reactions were terminated with 200 μl TCA 12% and assayed.

hydantoinase [4] = assay: Metal ion requirements of purified hydantoinase; type: biochemical, Ochrobactrum anthropi; set-up: Specific activity: unit not given here; settings: hydantoin as substrate, metal ion at 100 mM concentration
Description: Purified hydantoinase was assayed with hydantoin with the addition of the various metal ions at 100 mM concentration.

[5] = Specific activity of purified hydantoinase; type: biochemical, Ochrobactrum anthropi; settings: active band eluant from preparative native gel
Description: Active band eluant from preparative native gel was assayed and protein determined by Pierce Microtiter assay protocol using BSA standard. Specific activity was determined at greater than 4 IU per mg of protein.

[6] = PI value of hydantoinase by IEF-PAGE; type: physicochemical, Ochrobactrum anthropi; settings: IEF-PAGE gel, pH range of 3-9
Description: Active band eluant from preparative native gel was run on the Phast System IEF-PAGE gel with a pH range of 3-9 using low MW protein markers and the gel was silver stained. PI of active band protein was determined at approximately 4.5.

[7] = Stability of enzyme at pH 8.8, 9.3 and 9.8; type: biochemical, Ochrobactrum anthropi; settings: then assayed at pH 8.8, 42° C.
Description: Glutaraldehyde treated cells from pH profile study were held at pH 8.8, 9.3 and 9.8 for about 4 hours. Solids were washed, resuspended in 25 mM TAPS pH 8.8 and 10 mg/ml D,L-p-hydroxyphenyl hydantoin and incubated at 42° C. for 4 hours. […] Optimum pH of activity at 8.8 in pH profile study was probably due to greater enzyme stability at pH 8.8 rather than pH 9.3 or 9.8.

In the case of O=C1NC(=O)C(c2ccc(O)cc2)N1 (racemic) [D,L-p-hydroxyphenyl hydantoin], the product formed (hydantoinase [1]; substrate 5 mg/ml, 2¾ hr) is reported as 1.9 mg/mL, the product formed (hydantoinase [1]; substrate 5 mg/ml, 30 min) is reported as “.56 mg/mL” and the product formed (hydantoinase [1]; substrate 5 mg/ml, 60 min) is reported as 1.0 mg/mL. For the same molecule, the product formed (hydantoinase [1]; substrate 5 mg/ml, 4 hr) was 2.1 mg/mL, the product formed (hydantoinase [1]; substrate 5 mg/ml, 6 hr) was 2.2 mg/mL and the “% Conversion” value (hydantoinase [1]; substrate 5 mg/ml) was 40%. The product formed (hydantoinase [1]; substrate 10 mg/ml, 2¾ hr) was 3.4 mg/mL, the product formed (hydantoinase [1]; substrate 10 mg/ml, 30 min) was “.75 mg/mL” and the product formed (hydantoinase [1]; substrate 10 mg/ml, 60 min) was 1.4 mg/mL. The product formed (hydantoinase [1]; substrate 10 mg/ml, 4 hr) was 4.0 mg/mL, the product formed (hydantoinase [1]; substrate 10 mg/ml, 6 hr) was 4.4 mg/mL and the “% Conversion” value (hydantoinase [1]; substrate 10 mg/ml) was 40%. For the same molecule, the product formed (hydantoinase [1]; substrate 20 mg/ml, 2¾ hr) was 4.0 mg/mL, the product formed (hydantoinase [1]; substrate 20 mg/ml, 30 min) was “.82 mg/mL” and the product formed (hydantoinase [1]; substrate 20 mg/ml, 60 min) was 1.5 mg/mL. For the same molecule, the product formed (hydantoinase [1]; substrate 20 mg/ml, 4 hr) was 6.2 mg/mL, the product formed (hydantoinase [1]; substrate 20 mg/ml, 6 hr) was 7.7 mg/mL and the “% Conversion” value (hydantoinase [1]; substrate 20 mg/ml) was 35%. For the same molecule, the product formed (hydantoinase [1]; substrate 50 mg/ml, 2¾ hr) was 4.2 mg/mL, the product formed (hydantoinase [1]; substrate 50 mg/ml, 30 min) was “.95 mg/mL” and the product formed (hydantoinase [1]; substrate 50 mg/ml, 60 min) was 1.6 mg/mL. The product formed (hydantoinase [1]; substrate 50 mg/ml, 4 hr) was 6.3 mg/mL, the product formed (hydantoinase [1]; substrate 50 mg/ml, 6 hr) was 9.2 mg/mL and the “% Conversion” value (hydantoinase [1]; substrate 50 mg/ml) was 17%.

With O=C1CNC(=S)N1 [2-thio hydantoin] the “Specific activity” value (hydantoinase [2]) was 4.3 IU/mg.

For CC1NC(=O)NC1=O (centres unmarked) [5-methyl hydantoin], the “Specific activity” value (hydantoinase [2]) was 10.6 IU/mg.

In the case of CC(C)=O [Acetone, acetone], the “Relative Activity” value (hydantoinase [3]) is reported as 2.8.

Work on [Ca+2] [Ca (II)] yielded a Specific activity (hydantoinase [4]) of 3.6.

[Co+2] [Co (II)] gave a Specific activity (hydantoinase [4]) of 3.6.

[Cu+2] [Cu (II)] gave a Specific activity (hydantoinase [4]) of 1.2.

In the case of O=C(O)CC1NC(=O)NC1=O (centres unmarked) [D,L hydantoin 5-acetic acid], the “Specific activity” value (hydantoinase [2]) is reported as 1.8 IU/mg.

For [Fe+2] [Fe (II)], the Specific activity (hydantoinase [4]) was 9.3 and the “effect on the activity of the enzyme” value (hydantoinase [4]) was “stimulate the activity”.

[Fe+3] [Fe (III)] showed a Specific activity (hydantoinase [4]) of 3.8.

With O=CCCCC=O [Glutaraldehyde, glutaraldehyde] the “Relative Activity” value (hydantoinase [3]) was 1.2.

In the case of O=C1CNC(=O)N1 [Hydantoin], the “Specific activity” value (hydantoinase [2]) is reported as 7.5 IU/mg.

For [Mg+2] [Mg (II)], the Specific activity (hydantoinase [4]) was 5.2.

In the case of [Mn+2] [Mn (II)], the Specific activity (hydantoinase [4]) is reported as 7.1 and the “effect on the activity of the enzyme” value (hydantoinase [4]) is reported as “stimulate the activity”.

With [Ni+2] [Ni (II)] the Specific activity (hydantoinase [4]) was 3.6.

For O=C(O)CN(CCN(CC(=O)O)CC(=O)O)CC(=O)O [None (EDTA)], the Specific activity (hydantoinase [4]) was 4.8.

With O=c1cc[nH]c(=O)[nH]1 [Uracil] the “Specific activity” value (hydantoinase [2]) was 1.8 IU/mg.

Molecule [Zn+2] [Zn (II)] has a Specific activity (hydantoinase [4]) of 1.8.

In the case of Hydroxymethyl 5,5-dimethyl hydantoin, the “Specific activity” value (hydantoinase [2]) is reported as 5.6 IU/mg.

In the case of p-hydroxymethyl hydantoin, the “Specific activity” value (hydantoinase [2]) is reported as 1.9 IU/mg.

B1: hydantoinase: D-hydantoinase from Ochrobactrum anthropi, SEQ ID NO: 2; in Table 3 assayed in glutaraldehyde treated cells (protein, listed as Ochrobactrum anthropi)
chain: MAKVIKGGTVITADRTFKADVLIEGEKIVAVGDNLSGDEVIDASGCYIMPGGIDPHTHLQMPFMGTYSSDDFDTGTAAALAGGTTMVVDFVLPGSEGNLLEALQEWFQKAGKARTDYSFHMAITGWNERTFNEMAEVVKRGINTFKHFMAYKGALMVNDDEMFASFQRCAELGAMPLVHAENGDIVAQLQAKLMAEGNDGPEAHAYSRPPEVEGEATNRAIMIADQAGVPLYVVHVSCEQSHEAIRRARQKGMRVFGEPLIQHLTLDESEYHNRDWDYAARRVMSPPFRDKANQDSLWAGLAAGSLQCVATDHCAFTTEQKRYGIGNFTKIPNGTGGLEERMPVLWSRGVRTGRLTPNEFVAVTSTNIAKILNIYPQKGAVLPGADADLVIWDPEATRKVSAKTQHSSIDYNVFEGFELKGLPKMTLSRGRVAFDKGNVTAEPGDGRFIEREPNGAVNRALSQWKEIVAPRKVERSAEHMPIGV
For B1, the Specific activity [5] was “greater than 4 IU per mg of protein”, the PI [6] was “approximately 4.5” and the “Relative Activities” value ([7]; held at pH 8.8 for about 4 hours) was 1.75. The “Relative Activities” value ([7]; held at pH 9.3 for about 4 hours) was 1.17 and the “Relative Activities” value ([7]; held at pH 9.8 for about 4 hours) was 0.62.
